Patent US8088819B2, “Derivatives of substituted 3-phenyl-1-(phenylthienyl)propan-1-ones and of 3-phenyl-1-(phenylfuranyl) propan-1-ones, preparation and use” (priority 2006, dated 2012)
Where “and” joins values, the source holds several entries; their conditions need not be identical. Equal entries are not always repeated. Where two headings read alike, the source gives them in different places.

What was measured:
[1] = target: T1, hPPARalpha (Homo sapiens, UniProt Q07869); test: PPAR activation: Gal4-hPPARα chimera luciferase transactivation in COS-7 cells, Method 2; type: cell-based; settings: COS-7, 24 h; for EC50: 1% Ultroser; for Emax: maximum percentage response relative to the reference phenofibric acid, read-out: hPPARalpha % max
T1 construct: expressed in transfected cells; host or cells: COS-7 (monkey kidney fibroblasts)
T1 sequence (Q07869 239-466 limits assumed): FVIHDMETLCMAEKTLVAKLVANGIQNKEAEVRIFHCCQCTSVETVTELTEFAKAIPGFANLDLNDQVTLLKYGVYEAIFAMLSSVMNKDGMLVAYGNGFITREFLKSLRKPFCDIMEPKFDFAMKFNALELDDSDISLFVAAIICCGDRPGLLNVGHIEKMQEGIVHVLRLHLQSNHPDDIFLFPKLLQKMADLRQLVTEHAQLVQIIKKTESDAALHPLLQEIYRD
Procedure: (§1) The activation of the PPARs was evaluated in vitro on a line of monkey kidney fibroblasts (COS-7) by measuring the transcriptional activity of chimeras constituted of the DNA binding domain of the Gal4 transcription factor of yeast and the ligand binding domain of the various PPARs. The compounds were tested at doses between 10^−5 and […] on the chimeras Gal4-PPARα, γ or δ, and the corresponding EC50 values were determined.
(§2) The principle, the cells and the plasmids used for example 5 were also employed in this example. Only the application of the transfection stage is slightly different. The details are presented below.
(§3) The adherent COS-7 cells are transfected with 40 μg of DNA per 225 cm^2 dish, with a pGal4-PPAR/Gal4(RE)_TkpGL3 ratio of 1/10, in the presence of 10% fetal calf serum. The cells are then detached and seeded in the absence of serum in 384-well plates (2×10^4 cells/well) and incubated for 4 hours at 37° C. The compounds are then diluted in a 96-well plate and transferred to the 384-well plate. Activation with the test compounds is carried out for an additional 24 h at 37° C. in the presence of 1% of Ultroser™ lipid-free synthetic serum (Biosepra). These last 2 stages are automated using a Genesis Freedom 200™ station (Tecan). At the end of the experiment, the cells are lysed and the luciferase activity is determined using the Steady-Lite™ HTS (Perkin Elmer) following the supplier's recommendations.

[2] = target: T2, hPPARgamma (Homo sapiens, UniProt P37231); test: PPAR activation: Gal4-hPPARγ chimera luciferase transactivation in COS-7 cells, Method 2; type: cell-based; settings: COS-7, 24 h; for EC50: 1% Ultroser
T2 construct: expressed in transfected cells; host or cells: COS-7 (monkey kidney fibroblasts)
T2 sequence (P37231 238-503 limits assumed): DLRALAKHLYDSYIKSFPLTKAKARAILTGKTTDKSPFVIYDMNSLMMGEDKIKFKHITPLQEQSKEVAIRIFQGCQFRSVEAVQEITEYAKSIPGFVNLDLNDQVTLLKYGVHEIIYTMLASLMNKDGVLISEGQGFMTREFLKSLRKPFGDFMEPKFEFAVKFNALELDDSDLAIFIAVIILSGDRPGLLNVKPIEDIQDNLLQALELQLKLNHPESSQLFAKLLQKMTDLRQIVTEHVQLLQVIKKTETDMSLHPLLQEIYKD
Procedure: The activation of the PPARs was evaluated in vitro on a line of monkey kidney fibroblasts (COS-7) by measuring the transcriptional activity of chimeras constituted of the DNA binding domain of the Gal4 transcription factor of yeast and the ligand binding domain of the various PPARs.
Only the application of the transfection stage is slightly different. The details are presented below.
as §3

[3] = target: T3, hPPARdelta (Homo sapiens, UniProt Q03181); test: PPAR activation: Gal4-hPPARδ chimera luciferase transactivation in COS-7 cells, Method 2; type: cell-based; settings: COS-7, 24 h; for EC50: 1% Ultroser; for Emax: maximum percentage response relative to the reference GW501516, read-out: hPPARdelta % max
T3 construct: expressed in transfected cells; host or cells: COS-7 (monkey kidney fibroblasts)
T3 sequence (Q03181 211-439 limits assumed): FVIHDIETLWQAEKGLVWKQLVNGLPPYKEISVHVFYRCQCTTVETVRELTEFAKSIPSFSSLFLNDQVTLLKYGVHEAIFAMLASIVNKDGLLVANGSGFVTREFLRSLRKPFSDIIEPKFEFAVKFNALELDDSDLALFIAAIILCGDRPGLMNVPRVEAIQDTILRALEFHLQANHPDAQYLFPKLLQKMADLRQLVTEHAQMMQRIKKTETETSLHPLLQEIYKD
Procedure: as §1, §2, §3

[4] = system: target genes of PPARδ in murine myocytes (C2C12); test: Expression of target genes of PPARδ (PDK4, CPT1b, UCP2, UCP3) in murine myocytes, quantitative RT-PCR; type: cell-based; settings: murine myocytes in vitro
From the text: It is established that regulation of the expression of these genes is directly controlled by PPARδ in this cell type. The more the expression of the genes is increased, the greater the stimulating action of the compound according to the invention on metabolism in the muscle cells.
Cells from the murine cell line C2C12 (obtained from ECACC) are cultivated in DMEM medium (Gibco; 41965-039) with addition of 1% L-glutamine (Gibco; 25030), 1% of penicillin/streptomycin (VWR; BWSTL0022/100) and 10% decomplemented fetal calf serum (FCS. Gibco; 10270-106).
The cells are seeded on 24-well plates at a density of 50·10^3 cells/well. At confluence, the medium is replaced with a differentiating medium (basal medium with addition of 2% of horse serum (Gibco; 26050-088)), then incubated at 37° C. and 5% CO2 for 4 days in order to differentiate them to myocytes.
After 5 days of differentiation, the cells are put in a deprivation medium (basal medium without serum) for 6 hours. The cells are then treated with the compounds according to the invention in the deprivation medium. Compounds 2, 4, 7, 11, 39, 40, 46, 49 and 72 were in dose effect, corresponding to 1×, 10× and 100× their EC50 PPARδ. The compounds according to the invention were dissolved in dimethylsulfoxide (DMSO, Sigma; D5879). The cells were treated for 24 h at 37° C., 5% CO2. The effect of the compounds according to the invention was compared with the effect of DMSO alone.
After treatment, the total RNA is extracted from the cells using the NucleoSpine® 96 RNA kit (Macherey Nagel, Hoerdt, France) following the manufacturer's instructions.
1 μg of total RNA (quantified based on the UV spectrophotometer reading) was then reverse-transcribed to complementary DNA by reaction for 1 hour at 37° C. in a total volume of 30 μl containing buffer 1× (Invitrogen), 1.5 mM of DTT, 0.18 mM of dNTPs (Promega), 200 ng of pdN6 (Amersham), 30 U of RNase inhibitor (Promega) and 1 μl of MMLV-RT (Invitrogen).
The quantitative PCR experiments were carried out using the MyiQ Single-Color Real-Time PCR Detection System (Biorad, Marnes-la-Coquette, France) and were performed using the iQ SYBR Green Supermix kit following the supplier's recommendations, in 96-well plates, on 5 μl of diluted reverse-transcription reaction mixtures with a hybridization temperature of 60° C. Primer pairs specific to the PDK4, CPT1b, UCP2 and UCP3 genes under investigation were used:
The amount of fluorescence emitted is directly proportional to the amount of complementary DNA present at the start of the reaction and amplified during PCR. For each target investigated, a range is produced by successive dilutions of a pool constituted of a few microliters of various reverse-transcription reaction mixtures. The relative expression levels of each target are thus determined using the efficacy curves obtained with the points in the range.
The levels of expression of the genes of interest were then normalized relative to the level of expression of the reference gene 36B4 (whose specific primers are: sense primer: 5′-[…]-3′ (SEQ ID No. 19) and antisense primer: 5′-[…]-3′ (SEQ ID No. 20)). The induction factor, i.e. the ratio of the relative signal (induced by the compound according to the invention) to the mean of the relative values of the control group, was then calculated. The higher this factor, the greater the activating character of the compounds according to the invention with respect to gene expression. The final result is represented as the mean of the induction values in each experimental group.

[5] = maximum percentage response relative to the reference rosiglitazone, Method 2, read-out: hPPARgamma % max
[6] = Method 2, read-out: hPPARgamma EC50

`CSc1ccc(-c2ccc(C(=O)CCc3ccc(OC(C)(C)C(=O)O)c(Cl)c3Cl)s2)cc1` [Compound 54, 2-(2,3-dichloro-4-(3-(5-(4-(methylthio)phenyl)thien-2-yl)-3-oxo-propyl)phenoxy)-2-methylpropanoic acid] gave an EC50 [1] of 150 nM, an Emax [1] of 43% and an Emax [2, 5] of 62%. It also gave an EC50 [2, 6] of 860 nM, an EC50 [3] of 70 nM and an Emax [3] of 107%. The melting point was 171 to 172 °C.
With `O=C(O)COc1ccc(CCC(=O)c2ccc(-c3ccc(C(F)(F)F)cc3)s2)cc1F` [Compound 25, 2-(2-fluoro-4-(3-oxo-3-(5-(4-(trifluoromethyl)phenyl)thien-2-yl)-propyl)phenoxy)acetic acid] the EC50 [1] was 1680 nM, the Emax [1] was 55% and the Emax [2, 5] was 27%. It also gave an EC50 [2, 6] of 36500 nM, an EC50 [3] of 7450 nM and an Emax [3] of 75%. For the same compound, the melting point was 170 to 171 °C.
For `CC(C)(Oc1ccc(CCC(OCc2ccccc2)c2ccc(-c3ccc(C(F)(F)F)cc3)s2)c(F)c1F)C(=O)O` (centres unmarked) [Compound 63, 2-(4-(3-(benzyloxy)-3-(5-(4-(trifluoromethyl)phenyl)thien-2-yl)-propyl)-2,3-difluorophenoxy)-2-methylpropanoic acid], the EC50 [1] was 4210 nM, the Emax [1] was 46% and the Emax [2, 5] was 44%. It also gave an EC50 [2, 6] of 7910 nM, an EC50 [3] of 180 nM and an Emax [3] of 97%. The “expression of genes involved in carbohydrate and lipid metabolism and in thermoregulation” value [4] was “stimulating effects”.
For `CC(C)(Oc1ccc(CCC(=O)c2ccc(-c3ccc(C(F)(F)F)cc3)o2)c(Cl)c1Cl)C(=O)O` [Compound 38, 2-(2,3-dichloro-4-(3-oxo-3-(5-(4-(trifluoromethyl)phenyl)fur-2-yl)-propyl)phenoxy)-2-methylpropanoic acid], the EC50 [1] was 200 nM and 320 nM, the Emax [1] was 44% and the Emax ([2]; read-out: hPPARgamma % max, maximum percentage response relative to the reference rosiglitazone, Method 2) was 37%. For the same compound, the EC50 ([2]; hPPARgamma EC50, Method 2) was 1840 nM and 810 nM, the EC50 [3] was 14 nM and 9 nM and the Emax [3] was 89%. For the same compound, the melting point was 85 °C.
For `CC(C)(Oc1ccc(CCC(=O)c2ccc(-c3ccccc3)s2)c(Cl)c1Cl)C(=O)O` [Compound 57, 2-(2,3-dichloro-4-(3-oxo-3-(5-phenylthien-2-yl)propyl)phenoxy)-2-methylpropanoic acid], the EC50 [1] was 1000 nM, the Emax [1] was 44% and the Emax [2, 5] was 39%. For the same compound, the EC50 [2, 6] was 1520 nM, the EC50 [3] was 350 nM and the Emax [3] was 88%. The melting point was 179 to 180 °C.
With `Cc1cc(CCC(=O)c2ccc(-c3ccc(C(F)(F)F)cc3)s2)ccc1OC(C)(C)C(=O)O` [Compound 59, 2-methyl-2-(2-methyl-4-(3-oxo-3-(5-(4-(trifluoromethyl)phenyl)-thien-2-yl)propyl)phenoxy)propanoic acid] the Emax [1] was 47%, the Emax [2, 5] was 57% and the EC50 [2, 6] was 230 nM. For the same compound, the EC50 [3] was 30 nM, the Emax [3] was 107% and the melting point was 130 to 131 °C.
Work on `CON=C(CCc1ccc(OC(C)(C)C(=O)O)c(Cl)c1Cl)c1ccc(-c2ccc(C(F)(F)F)cc2)s1` (mixture of isomers) [Compound 50, 2-(2,3-dichloro-4-(3-(methoxyimino)-3-(5-(4-(trifluoromethyl)-phenyl)thien-2-yl)propyl)phenoxy)-2-methylpropanoic acid] yielded an EC50 [1] of 260 nM, an Emax [1] of 38% and an Emax [2, 5] of 32%. It also gave an EC50 [2, 6] of 270 nM, an EC50 [3] of 50 nM and an Emax [3] of 78%. It also gave a melting point of 68 to 69 °C.
In the case of `CC(C)(Oc1ccc(CCC(=O)c2ccc(-c3ccc(Br)cc3)s2)c(Cl)c1Cl)C(=O)O` [Compound 52, 2-(4-(3-(5-(4-bromophenyl)thien-2-yl)-3-oxopropyl)-2,3-dichloro-phenoxy)-2-methylpropanoic acid], the EC50 [1] is reported as 210 nM, the Emax [1] is reported as 53% and the Emax [2, 5] is reported as 57%. It also gave an EC50 [2, 6] of 1020 nM, an EC50 [3] of 50 nM and an Emax [3] of 104%. For the same compound, the melting point was 155 to 157 °C.
`CC(C)OC(CCc1ccc(OC(C)(C)C(=O)O)c(Cl)c1Cl)c1ccc(-c2ccc(C(F)(F)F)cc2)s1` (centres unmarked) [Compound 55, 2-(2,3-dichloro-4-(3-isopropoxy-3-(5-(4-(trifluoromethyl)-phenyl)thien-2-yl)propyl)phenoxy)-2-methylpropanoic acid] gave an EC50 [1] of 2800 nM, an Emax [1] of 25% and an Emax [2, 5] of 2%. It also gave an EC50 [3] of 4710 nM, an Emax [3] of 34% and a melting point of 88 to 90 °C.
`CC(C)(Oc1ccc(CCC(=O)c2ccc(-c3ccc(C(F)(F)F)cc3)s2)cc1)C(=O)O` [Compound 67, 2-(4-(3-oxo-3-(5-(4-(trifluoromethyl)phenyl)thien-2-yl)propyl)-phenoxy)-2-methylpropanoic acid] showed an EC50 [1] of 10 nM, an Emax [1] of 45% and an Emax [2, 5] of 37%. The EC50 [2, 6] was 4820 nM, the EC50 [3] was 360 nM and the Emax [3] was 75%. It also gave a melting point of 154 to 155 °C.
